Read-outs that look alike come from different tables or passages of the source.
How the values were obtained:
[1] = target: T1, JAK3 enzyme (Homo sapiens, UniProt P52333); assay: JAK Caliper Enzyme Assay at 4 μM ATP; assay type: biochemical
T1 sequence (P52333 1-1124): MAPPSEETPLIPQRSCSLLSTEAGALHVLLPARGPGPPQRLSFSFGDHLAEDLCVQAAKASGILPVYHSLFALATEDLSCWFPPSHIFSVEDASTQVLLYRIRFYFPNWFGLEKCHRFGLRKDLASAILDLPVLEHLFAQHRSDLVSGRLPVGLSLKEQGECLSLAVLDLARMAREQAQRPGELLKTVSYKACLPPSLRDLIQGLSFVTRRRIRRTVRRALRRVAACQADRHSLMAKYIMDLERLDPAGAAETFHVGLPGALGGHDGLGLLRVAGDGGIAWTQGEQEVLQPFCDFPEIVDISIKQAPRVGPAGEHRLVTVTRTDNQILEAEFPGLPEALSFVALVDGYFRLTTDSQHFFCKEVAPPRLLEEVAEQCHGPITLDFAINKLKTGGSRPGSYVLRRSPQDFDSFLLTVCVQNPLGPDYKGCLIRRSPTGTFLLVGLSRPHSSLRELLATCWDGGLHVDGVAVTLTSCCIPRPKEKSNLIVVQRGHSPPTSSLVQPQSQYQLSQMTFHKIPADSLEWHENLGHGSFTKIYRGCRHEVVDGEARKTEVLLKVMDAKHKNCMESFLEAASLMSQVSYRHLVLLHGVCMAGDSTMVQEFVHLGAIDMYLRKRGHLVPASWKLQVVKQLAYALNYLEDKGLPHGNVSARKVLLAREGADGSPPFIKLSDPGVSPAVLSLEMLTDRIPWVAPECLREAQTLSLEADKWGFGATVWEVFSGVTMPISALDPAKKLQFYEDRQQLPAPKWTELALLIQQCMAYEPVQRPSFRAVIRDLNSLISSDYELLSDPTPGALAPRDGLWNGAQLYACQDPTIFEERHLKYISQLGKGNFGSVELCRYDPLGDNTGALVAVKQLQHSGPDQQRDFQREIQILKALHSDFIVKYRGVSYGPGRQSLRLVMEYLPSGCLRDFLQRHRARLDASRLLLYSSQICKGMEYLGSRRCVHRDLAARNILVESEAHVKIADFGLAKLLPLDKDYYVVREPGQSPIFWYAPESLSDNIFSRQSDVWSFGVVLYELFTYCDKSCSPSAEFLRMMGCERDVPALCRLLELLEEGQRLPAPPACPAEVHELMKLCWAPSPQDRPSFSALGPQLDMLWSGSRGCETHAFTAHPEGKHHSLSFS
Method in brief: (§1)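 Substrate conversion was kept within 20%-30% by adjusting enzyme and incubation for every preparation; peptide phosphorylation was quantified via on-chip mobility shift.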

[2] = target: T1, JAK3 enzyme; assay: JAK Caliper Enzyme Assay at 1 mM ATP; assay type: biochemical
Method in brief: as §1

[3] = test system: IL-15 induced P-STAT5 in human PBMC; assay: PBMC IL-15 Induced P-STAT5; assay type: cell-based
Experimental: PBMC IL-15 Induced P-STAT5
Test compounds were serially diluted in DMSO, with further dilution of the compounds in RPMI 1640 medium (Invitrogen #72400) supplemented with 10 mM HEPES, pH 7.4, 1 mM sodium pyruvate, and Penicillin/Streptomycin (by adding 5 μL compound/DMSO in 120 μL Dulbecco's Phosphate-Buffered Saline (D-PBS, 1×), [DMSO]=4%, and mixing the solution by repeated pipetting, 6×). IL-15 was diluted to the concentration at 820 ng/mL in RPMI 1640 medium.
Frozen human PBMC (200-250 million cells/vial) was thawed at 37° C. The cells were transferred to 10 mL warm medium in a 50-mL conical tube, and centrifuged at 1,200 RPM at room temperature for 5 min. The supernatant was aspirated. Cells were suspended in 3 mL warm human plasma and incubated at 37° C. in a tissue culture incubator for 1.5 to 2 h. After adding 47 ml D-PBS (37° C.) to PBMC/FBS suspension, centrifuging at 1,200 RPM at room temperature for 5 min, and aspirating the supernatant, the cells were resuspended in 20 mL warm RPMI medium. Ninety μL of cell suspension were pipetted per well in a 96-well, deep-well, V-bottom plate, and the plate was incubated at 37° C. for 30 min. Five μL of compound were transferred to each well (final 0.2% DMSO), vortex gently and incubate at 37° C. for 15 min; 5 μL 4% DMSO/PBS were added to the control wells. After adding 5 μL 820 ng/mL of human IL-15 (final 41 ng/mL) to each well (5 μL PBS to the control wells), vortexing gently and incubating at 37° C. for 15 min, followed by 0.3 mL 1% paraformaldehyde/PBS (37° C.) to each well, and incubating the plate at room temperature for 15 min, the plates were centrifuged at 1,200 RPM (Beckman GS-6R or Sorvall Legend) at room temperature for 5 min, and the supernatant was aspirated using a 8-channel or 12-channel manifold. After adding 0.8 mL staining buffer per well, the plates were centrifuged at 1,200 RPM (Beckman GS-6R or Sorvall Legend) at room temperature for 5 min, and again the supernatant was aspirated using a 8-channel or 12-channel manifold. The plate was vortexed, and 0.35 mL 90% methanol/10% H2O (−20° C.) was added per well, and the plate incubated on ice for 20 min. After again adding 0.8 mL staining buffer per well, the plates were centrifuged at 1,200 RPM (Beckman GS-6R or Sorvall Legend) at room temperature for 5 min, and again the supernatant was aspirated using a 8-channel or 12-channel manifold, and then 0.8 mL Staining buffer was added per well. After once again adding 0.8 mL staining buffer per well, the plates were centrifuged at 1,200 RPM (Beckman GS-6R or Sorvall Legend) at room temperature for 5 min, and again the supernatant was aspirated using a 8-channel or 12-channel manifold. Then the plate was vortexed, and 250 μL/well of Alexa Fluor® 647 conjugated anti-STAT5 antibody ([…]; […]) was added, and the plate was incubated at 4° C. overnight in the dark. Samples of 250 μL/well were transferred to a 96-well U-bottom plate, and the FACS analysis was performed gating on total lymphocytes. Samples were analyzed using a BD Calibur™ or BD FACSCanto™ flow cytometer equipped with the BD High Throughput Sampler.

[4] = human PBMC, IL-15 final 41 ng/mL, read-out: PBMC IL15_pSTAT5_IC50

IC50 [1] | IC50 [2] | SMILES | IC50 ([3]; Homo sapiens, PBMC, read-out: PBMC IL15_pSTAT5_IC50 (nM)) | IC50 [3, 4]
6.26 nM | 1200 nM | C=CC(=O)N(C)C1CN(c2cnc3[nH]cc(C(=O)NCC)c3n2)C1 [Example 59, 2-{3-[acryloyl(methyl)amino]azetidin-1-yl}-N-ethyl-5H-pyrrolo[2,3-b]pyrazine-7-carboxamide] | – | 4870 nM
3.39 nM | 564 nM | C=CC(=O)N1CCC(C)(Oc2cnc3[nH]cc(C(=O)NCC)c3n2)CC1 [Example 61, 2-[(1-acryloyl-4-methylpiperidin-4-yl)oxy]-N-ethyl-5H-pyrrolo[2,3-b]pyrazine-7-carboxamide] | – | 2170 nM
1.67 nM | 329 nM | C=CC(=O)N(C)C1CN(c2cnc3[nH]cc(C(=O)NCCOC)c3n2)C1 [Example 84, 2-{3-[acryloyl(methyl)amino]azetidin-1-yl}-N-(2-methoxyethyl)-5H-pyrrolo[2,3-b]pyrazine-7-carboxamide] | – | 1220 nM
1.49 nM | 168 nM | C=CC(=O)N1CCN(c2cnc3[nH]cc(C(=O)N[C@@H](CC)COC)c3n2)CC1(C)C [Example 135, 2-(4-acryloyl-3,3-dimethylpiperazin-1-yl)-N-[(2S)-1-methoxybutan-2-yl]-5H-pyrrolo[2,3-b]pyrazine-7-carboxamide] | – | 759 nM
1.97 nM | 256 nM | C=CC(=O)N1CCN(c2cnc3[nH]cc(C(=O)N[C@H](C)CC#N)c3n2)CC1(C)C [Example 152, 2-(4-acryloyl-3,3-dimethylpiperazin-1-yl)-N-[(2R)-1-cyanopropan-2-yl]-5H-pyrrolo[2,3-b]pyrazine-7-carboxamide] | – | 510 nM
3.07 nM | 365 nM | C=CC(=O)N1CCN(c2cnc3[nH]cc(C(=O)N[C@@H](C)C(=O)OC)c3n2)CC1(C)C [Example 158, Methyl N-{[2-(4-acryloyl-3,3-dimethylpiperazin-1-yl)-5H-pyrrolo[2,3-b]pyrazin-7-yl]carbonyl}-L-alaninate] | – | 888 nM
1.24 nM | 160 nM | C=CC(=O)N1CCN(c2cnc3[nH]cc(C(=O)NC(CC)(CC)CO)c3n2)CC1(C)C [Example 163, 2-(4-acryloyl-3,3-dimethylpiperazin-1-yl)-N-[3-(hydroxymethyl)pentan-3-yl] 5H-pyrrolo[2,3-b]pyrazine-7-carboxamide] | – | 409 nM
0.928 nM | 55 nM | C=CC(=O)N1CCC(Nc2cnc3[nH]cc(C(=O)NCc4nc(C)cc(C(F)(F)F)n4)c3n2)CC1 [Example 171, 2-[(1-acryloylpiperidin-4-yl)amino]-N-{[4-methyl-6-(trifluoromethyl)pyrimidin-2-yl]methyl}-5H-pyrrolo[2,3-b]pyrazine-7-carboxamide] | – | 947 nM
0.681 nM | 43 nM | C=CC(=O)N1CCC(Nc2cnc3[nH]cc(C(=O)NCc4cc(C5CCC5)nn4C)c3n2)CC1 [Example 173, 2-[(1-acryloylpiperidin-4-yl)amino]-N-[(3-cyclobutyl-1-methyl-1H-pyrazol-5-yl)methyl]-5H-pyrrolo[2,3-b]pyrazine-7-carboxamide] | – | 1420 nM
0.626 nM | 25 nM | C=CC(=O)N1CCC(Nc2cnc3[nH]cc(C(=O)NCc4nc5cc(F)ccc5o4)c3n2)CC1 [Example 177, 2-[(1-acryloylpiperidin-4-yl)amino]-N-[(5-fluoro-1,3-benzoxazol-2-yl)methyl]-5H-pyrrolo[2,3-b]pyrazine-7-carboxamide] | – | 420 nM
2.44 nM | 165 nM | C=CC(=O)N1CCC(Nc2cnc3[nH]cc(C(=O)NCCc4nc5ccc(F)c(F)c5o4)c3n2)CC1 [Example 182, 2-[(1-acryloylpiperidin-4-yl)amino]-N-[2-(6,7-difluoro-1,3-benzoxazol-2-yl)ethyl]-5H-pyrrolo[2,3-b]pyrazine-7-carboxamide] | – | > 10000 nM
1.03 nM | 41 nM | C=CC(=O)N1CCC(Nc2cnc3[nH]cc(C(=O)NCc4ccc(-n5cccn5)cc4)c3n2)CC1 [Example 183, 2-[(1-acryloylpiperidin-4-yl)amino]-N-[4-(1H-pyrazol-1-yl)benzyl]-5H-pyrrolo[2,3-b]pyrazine-7-carboxamide] | – | 1590 nM
1.39 nM | 68 nM | C=CC(=O)N1CCC(Nc2cnc3[nH]cc(C(=O)NCc4ccc(CC)c(C)n4)c3n2)CC1 [Example 184, 2-[(1-acryloylpiperidin-4-yl)amino]-N-[(5-ethyl-6-methylpyridin-2-yl)methyl]-5H-pyrrolo[2,3-b]pyrazine-7-carboxamide] | – | 1190 nM
0.627 nM | 29 nM | C=CC(=O)N1CCC(Nc2cnc3[nH]cc(C(=O)NCc4cnn(-c5cccc(F)c5)c4)c3n2)CC1 [Example 192, 2-[(1-acryloylpiperidin-4-yl)amino]-N-{[1-(3-fluorophenyl)-1H-pyrazol-4-yl]methyl}-5H-pyrrolo[2,3-b]pyrazine-7-carboxamide] | – | 907 nM
0.788 nM | 147 nM | C=CC(=O)N1CCC(Oc2cnc3[nH]cc(C(=O)NCC4CC(F)(F)C4)c3n2)CC1 [Example 197, 2-[(1-acryloylpiperidin-4-yl)oxy]-N-[(3,3-difluorocyclobutyl)methyl]-5H-pyrrolo[2,3-b]pyrazine-7-carboxamide] | – | 706 nM

SMILES | IC50 [1] | IC50 [2] | IC50 ([3]; Homo sapiens, PBMC, read-out: PBMC IL15_pSTAT5_IC50 (nM)) | IC50 [3, 4]
C=CC(=O)N1CC[C@H](Oc2cnc3[nH]cc(C(=O)N[C@H](C)COC)c3n2)C1 [Example 54, 2-{[(3S)-1-acryloylpyrrolidin-3-yl]oxy}-N-[(2R)-1-methoxypropan-2-yl]-5H-pyrrolo[2,3-b]pyrazine-7-carboxamide] | 2.49 nM | 345 nM | 1640 nM | –
